Columns and labels:
[1] = molecular target: T1, menin/MLL (terbium chelate-labeled menin, FITC-MBM1 peptide) (Homo sapiens, UniProt O00255, T541A); experiment: Menin/MLL homogenous time-resolved fluorescence (HTRF) assay; format: binding; conditions: 30 min incubation
T1 construct: Menin (a.a 1-610-6xhis tag)
T1 sequence (O00255 with tags, fused parts or gaps T541A): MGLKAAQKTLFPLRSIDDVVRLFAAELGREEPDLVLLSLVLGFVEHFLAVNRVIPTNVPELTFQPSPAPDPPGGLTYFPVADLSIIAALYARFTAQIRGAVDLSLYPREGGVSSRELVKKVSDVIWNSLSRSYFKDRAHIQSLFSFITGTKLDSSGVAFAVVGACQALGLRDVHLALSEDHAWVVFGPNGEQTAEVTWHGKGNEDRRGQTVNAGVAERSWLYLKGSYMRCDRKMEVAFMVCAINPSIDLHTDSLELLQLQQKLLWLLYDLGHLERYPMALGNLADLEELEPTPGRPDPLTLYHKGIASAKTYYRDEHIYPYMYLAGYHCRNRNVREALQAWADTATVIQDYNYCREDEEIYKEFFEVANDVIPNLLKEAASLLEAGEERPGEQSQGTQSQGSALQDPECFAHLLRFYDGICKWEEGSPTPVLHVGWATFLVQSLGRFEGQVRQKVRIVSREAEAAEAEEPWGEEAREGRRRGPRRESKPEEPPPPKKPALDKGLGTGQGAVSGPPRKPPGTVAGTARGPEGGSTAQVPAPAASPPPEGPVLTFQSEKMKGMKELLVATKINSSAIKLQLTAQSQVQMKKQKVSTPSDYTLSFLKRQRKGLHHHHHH
Protocol: 1) Menin/MLL Homogenous Time-Resolved Fluorescence (HTRF) Assay
To an untreated, white 384-well microtiter plate was added 40 nL 200× test compound in DMSO and 4 μL 2× terbium chelate-labeled menin (vide infra for preparation) in assay buffer (40 mM Tris.HCl, pH 7.5, 50 mM NaCl, 1 mM DTT (dithiothreitol) and 0.05% Pluronic F-127). After incubation of test compound and terbium chelate-labeled menin for 30 min at ambient temperature, 4 μL 2× FITC-MBM1 peptide (FITC-β-alanine-SARWRFPARPGT-NH2 (SEQ ID NO: 3)) (“FITC” means fluorescein isothiocyanate) in assay buffer was added, the microtiter plate centrifuged at 1000 rpm for 1 min and the assay mixtures incubated for 15 min at ambient temperature. The relative amount of menin FITC-MBM1 complex present in an assay mixture is determined by measuring the homogenous time-resolved fluorescence (HTRF) of the terbium/FITC donor/acceptor fluorophore pair using an EnVision microplate reader (ex. 337 nm/terbium em. 490 nm/FITC em. 520 nm) at ambient temperature. The degree of fluorescence resonance energy transfer (the HTRF value) is expressed as the ratio of the fluorescence emission intensities of the FITC and terbium fluorophores (F^em 520 nm/F^em 490 nm). The final concentrations of reagents in the binding assay are 200 pM terbium chelate-labeled menin, 75 nM FITC-MBM1 peptide and 0.5% DMSO in assay buffer. Dose-response titrations of test compounds are conducted using an 11 point, four-fold serial dilution scheme, starting typically at 10 μM.
Compound potencies were determined by first calculating % inhibition at each compound concentration according to equation 1:
% inhibition=((HC−LC)−(HTRF^compound−LC))/(HC−LC))*100 (Eqn 1)
Where LC and HC are the HTRF values of the assay in the presence or absence of a saturating concentration of a compound that competes with FITC-MBM1 for binding to menin, and HTRF^compound is the measured HTRF value in the presence of the test compound. HC and LC HTRF values represent an average of at least 10 replicates per plate.
% inhibition=Bottom+(Top−Bottom)/(1+10^((logIC50−log[cmpd])*h)) (Eqn 2)
Where Bottom and Top are the lower and upper asymptotes of the dose-response curve, respectively, IC50 is the concentration of compound that yields 50% inhibition of signal and h is the Hill coefficient. IC50 values below 0.1 nM in the HTRF assay were reported as 0.1 nM in the Table below (detection limit).
Preparation of Terbium cryptate labeling of Menin: Menin (a.a 1-610-6xhis tag (“6xhis tag” disclosed as SEQ ID NO: 2), 2.3 mg/mL in 20 mM Hepes (2-[4-(2-Hydroxyethyl)-1-piperazinyl]ethane sulfonic acid), 80 mM NaCl, 5 mM DTT (Dithiothreitol), pH 7.5) was labeled with terbium cryptate as follows. 200 μg of Menin was buffer exchanged into 1× Hepes buffer. 6.67 μM Menin was incubated with 8-fold molar excess NHS (N-hydroxysuccinimide)-terbium cryptate for 40 minutes at room temperature. Half of the labeled protein was purified away from free label by running the reaction over a NAP5 column with elution buffer (0.1 M Hepes, pH 7+0.1% BSA (bovine serum albumin)). The other half was eluted with 0.1 M phosphate buffered saline (PBS), pH7. 400 μl of eluent was collected for each, aliquoted and frozen at −80° C. The final concentration of terbium-labeled Menin protein was 115 μg/mL in Hepes buffer and 85 μg/mL in PBS buffer, respectively.

[2] = test system: MOLM14 cells; experiment: Proliferation assay, spheroid-like growth, MOLM14 (MLL-AF9 rearranged); format: cell-based, human; conditions: Homo sapiens, MOLM-14, 192 h, 8 days, confluence as measure of spheroid size, read-out: spheroid assay_OneTime MOLM14 IC50
Protocol: The anti-proliferative effect of menin/MLL protein/protein interaction inhibitor test compounds was assessed in human leukemia cell lines. The cell line MOLM14 harbors a MLL translocation and expresses the MLL fusion proteins MLL-AF9, respectively, as well as the wildtype protein from the second allele. […] KO-52 was used as a control cell line containing two MLL (KMT2A) wildtype alleles in order to exclude compounds that display general cytotoxic effects.
MOLM14 cells were cultured in RPMI-1640 (Sigma Aldrich) supplemented with 10% heat-inactivated fetal bovine serum (HyClone), 2 mM L-glutamine (Sigma Aldrich) and 50 μg/ml gentamycin (Gibco). KO-52 cell lines were propagated in alpha-MEM (Sigma Aldrich) supplemented with 20% heat-inactivated fetal bovine serum (HyClone), 2 mM L-glutamine (Sigma Aldrich) and 50 μg/ml gentamycin (Gibco).
In order to assess the anti-proliferative effects, 200 MOLM14 cells, or 300 KO-52 cells were seeded in 200 μl media per well in 96-well round bottom, ultra-low attachment plates (Costar, catalogue number 7007). Cell seeding numbers were chosen based on growth curves to ensure linear growth throughout the experiment. Test compounds were added at different concentrations and the DMSO content was normalized to 0.3%. Cells were incubated for 8 days at 37° C. and 5% CO2. Spheroid like growth was measured in real-time by live-cell imaging (IncuCyteZOOM, Essenbio, 4× objective) acquiring images at day 8. Confluence (%) as a measure of spheroid size was determined using an integrated analysis tool.
In order to determine the effect of the test compounds over time, the confluence in each well as a measure of spheroid size, was calculated. Confluence of the highest dose of a reference compound was used as baseline for the LC (Low control) and the confluence of DMSO treated cells was used as 0% cytotoxicity (High Control, HC).
Absolute IC50 values were calculated as percent change in confluence as follows:
LC=Low Control: cells treated with e.g. 1 μM of the cytotoxic agent staurosporin, or e.g. cells treated with a high concentration of an alternative reference compound
GraphPad Prism (version 7.00) was used to calculate the IC50. Dose-response equation was used for the plot of % Effect vs Log 10 compound concentration with a variable slope and fixing the maximum to 100% and the minimum to 0%.

Compound: CC(C)C([C@H]1C[C@@H](N2CC[C@@](C)(O)C2)C1)N1CC2(CCN(c3ncnnc3Oc3ccc(F)cc3-c3cnccc3C3CC3)C2)C1 (mixture of isomers) [Compound 137]
- IC50 [1]: 0.2 nM
- IC50 [2]: 7 nM

Compound: CC(C)[C@H]([C@H]1C[C@@H](N2CCC(C(=O)N(C)C)C2)C1)N1CC2(CCN(c3ncnnc3Oc3ccc(F)cc3-c3cncnc3C3CC3)C2)C1 (mixture of isomers) [Compound 210]
- IC50 [1]: 0.1 nM
- IC50 [2]: 5 nM

Compound: COC1(C)CCN([C@H]2C[C@@H]([C@H](C(C)C)N3CC4(CCN(c5ncnnc5Oc5ccc(F)cc5-c5nnccc5C5CC5)C4)C3)C2)C1 (mixture of isomers) [Compound 275]
- IC50 [1]: 0.1 nM
- IC50 [2]: 7 nM

Compound: Cc1ncc(-c2cc(F)ccc2Oc2nncnc2N2CCC3(C2)CN([C@@H](C(C)C)[C@H]2C[C@@H](N4CC5COCC5C4)C2)C3)c(C2CC2)n1 (mixture of isomers) [Compound 379]
- IC50 [1]: 0.11 nM
- IC50 [2]: 1.9 nM

Compound: Cc1nnc(C2CC2)n1-c1cc(F)ccc1Oc1nncnc1N1CCC2(C1)CN([C@H](C(C)C)C1CC(N(C)C)C1)C2 (mixture of isomers) [Compound 502, N,N-dimethyl-3-[(1R)-1-[7-[6-[2-(3-cyclopropyl-5-methyl-1,2,4-triazol-4-yl)-4-fluoro-phenoxy]-1,2,4-triazin-5-yl]-2,7-diazaspiro[3.4]octan-2-yl]-2-methyl-propyl]cyclobutanamine]
- IC50 [1]: 0.12 nM
- IC50 [2]: 32 nM

Compound: CC(C)[C@H]([C@H]1C[C@@H](NC2(C)CCS(=O)(=O)CC2)C1)N1CC2(CCN(c3ncnnc3Oc3ccc(F)cc3-c3cncnc3C3CC3)C2)C1 (single isomer, unassigned) [Compound 44]
- IC50 [1]: 0.1 nM
- IC50 [2]: 27 nM

Compound: CC(=O)N1CCN([C@H]2C[C@H]([C@H](C(C)C)N3CC4(CCN(c5ncnnc5Oc5ccc(F)cc5-c5cnncc5C5CC5)C4)C3)C2)CC1 (single isomer, unassigned) [Compound 105]
- IC50 [1]: 1 nM

Compound: CC(C)[C@H]([C@H]1C[C@@H](N2CC3(CCC(=O)N3C)C2)C1)N1CC2(CCN(c3ncnnc3Oc3ccc(F)cc3-c3cncnc3C3CC3)C2)C1 (single isomer, unassigned) [Compound 316]
- IC50 [1]: 4.9 nM

Compound: CC(C)[C@@H](C1CN(CC2COC2)C1)N1CC2(CCN(c3ncnnc3Oc3ccc(F)cc3-c3cncnc3C3CC3)C2)C1 (single isomer, unassigned) [Compound 353]
- IC50 [1]: 0.5 nM

Compound: C[C@@H]([C@H]1C[C@@H](NC(=O)C2CC2)C1)N1CC2(CCN(c3ncnnc3Oc3ccc(F)cc3-c3cncnc3C3CC3)C2)C1 (single isomer, unassigned) [Compound 444]
- IC50 [1]: 0.16 nM

Compound: C[C@@H]([C@H]1C[C@@H](NC(=O)C2(F)CC2)C1)N1CC2(CCN(c3ncnnc3Oc3ccc(F)cc3-c3cncnc3C3CC3)C2)C1 (single isomer, unassigned) [Compound 456]
- IC50 [1]: 0.53 nM

Compound: CNC(=O)c1nccc(N[C@H]2C[C@@H]([C@@H](C(C)C)N3CC4(CCN(c5ncnnc5Oc5ccc(F)cc5-c5cncnc5C5CC5)C4)C3)C2)n1 (single isomer, unassigned) [Compound 457]
- IC50 [1]: 0.29 nM

Compound: CNC(=O)c1nc(N[C@H]2C[C@@H](C(C(C)C)N3CC4(CCN(c5ncnnc5Oc5ccc(F)cc5-c5cncnc5C5CC5)C4)C3)C2)oc1C (single isomer, unassigned) [Compound 459]
- IC50 [1]: 0.06 nM

Compound: COC(=O)c1nccc(N[C@H]2C[C@@H](C(C(C)C)N3CC4(CCN(c5ncnnc5Oc5ccc(F)cc5-c5cncnc5C5CC5)C4)C3)C2)n1 (single isomer, unassigned) [Compound 489]
- IC50 [1]: 0.22 nM

Compound: Cc1noc(C2CC2)c1-c1cc(F)ccc1Oc1nncnc1N1CCC2(C1)CN([C@H](C(C)C)[C@H]1C[C@@H](N(C)C)C1)C2 (single isomer, unassigned) [Compound 503]
- IC50 [1]: 0.18 nM

Compound: CC(=O)N[C@H]1C[C@@H](C(C(C)C)N2CC3(CCN(c4ncnnc4Oc4ccc(F)cc4-c4ccnnc4C4CC4)C3)C2)C1 (stereo partly shown) [Compound 182]
- IC50 [1]: 0.6 nM

Compound: CC(C)C(C1CCN(CC2COC2)CC1)N1CC2(CCN(c3ncnnc3Oc3ccc(F)cc3-c3nccnc3C3CC3)C2)C1 (stereo not shown) [Compound 202]
- IC50 [1]: 0.7 nM

Compound: Cc1noc(C2CC2)c1-c1cc(F)ccc1Oc1nncnc1N1CCC2(C1)CN([C@H](C(C)C)[C@H]1C[C@@H](NC(=O)OC(C)(C)C)C1)C2 [Compound 504, tert-butyl N-[3-[(1R)-1-[7-[6-[2-(5-cyclopropyl-3-methyl-isoxazol-4-yl)-4-fluoro-phenoxy]-1,2,4-triazin-5-yl]-2,7-diazaspiro[3.4]octan-2-yl]-2-methyl-propyl]cyclobutyl]carbamate]
- IC50 [1]: 0.58 nM

Compound: Cc1noc(C2CC2)c1-c1cc(F)ccc1Oc1nncnc1N1CCC2(C1)CN([C@H](C(C)C)C1CC(NC(=O)OC(C)(C)C)C1)C2 (stereo partly drawn) [Compound 505, tert-butyl N-[3-[(1R)-1-[7-[6-[2-(5-cyclopropyl-3-methyl-isoxazol-4-yl)-4-fluoro-phenoxy]-1,2,4-triazin-5-yl]-2,7-diazaspiro[3.4]octan-2-yl]-2-methyl-propyl]cyclobutyl]carbamate]
- IC50 [1]: 0.54 nM

Reference: patent publication US20240417405A1, “Substituted Spiro Derivatives” (Janssen Pharmaceutica NV, priority 2021, published 2024)
